These results are taken from ChEMBL document CHEMBL5126595, “Identification and anti-tumor evaluation of 3-acyl-indol-based 2,4-diarylaminopyrimidine analogues as potent ALK inhibitors capable of overcoming drug-resistant mutants” (Eur J Med Chem, 2022).

pIC50: −log10 of the molar value. Activity calls are given as the source filed them. The calls are words filed in the database; no cut-off is given here.

The target in series [1] is ALK tyrosine kinase receptor (Homo sapiens, UniProt Q9UM73, L1196M). In words: Inhibition of N-terminal GST-tagged human ceritinib-resistant ALK L1196M mutant (1058 to 1620 residues) cytoplasmic domain expressed in baculovirus infected Sf21 cells incubated for 1 hrs in the presence of ATP by mobility shift assay.
Series [2] can be described thus: Antiproliferative activity […] EML4-ALK-G1202R cells assessed as inhibition of cell growth incubated for 72 hrs by MTT assay. The format is functional, cell-based. Background: Tetrazolium assays rely on reduction of a dye to a coloured formazan, in cell work by metabolically active cells.
Series [3] concerns NCI-H1581. The series is described as follows: Antiproliferative activity against human NC-H1581 cells assessed as inhibition of cell growth incubated for 72 hrs by MTT assay. As to conditions: NCI-H1581, 72 h. The format is functional, cell-based.
Series [4] can be described thus: Oral bioavailability in Sprague-Dawley rat at 10 mg/kg by LC-MS/MS analysis. The format is ADME, organism-based. The conditions noted are these: in vivo.
The subject of series [5] is NCI-H2228. In words: Induction of apoptosis in human NCI-H2228 cells assessed as chromatin condensation by measuring brilliant blue fluorescence at 25 to 100 nM incubated for 48 hrs by Hoechst 33342 staining based fluorescence microscopic analysis. In kind it is functional, cell-based. The conditions noted are these: dose 25-100 nM.
Series [6] has as its system NCI-H2228. The series is described as follows: Induction of apoptosis in human NCI-H2228 cells assessed as appearance of apoptotic bodies at 25 to 100 nM incubated for 48 hrs by Hoechst 33342 staining based fluorescence microscopic analysis. The format is functional, cell-based. As to conditions: dose 25-100 nM.
Series [7] has as its system NCI-H2228. In words: Induction of apoptosis in human NCI-H2228 cells assessed as late apoptotic cells at 100 nM incubated for 48 hrs by AnnexinV-FITC/propidium iodide staining based flow cytometry analysis (reference value: 4.72 %). The format is functional. For orientation: Flow cytometry measures light scatter and fluorescence of single cells or particles in a stream.

In series [8] the test system is NCI-H2228. In words: Induction of apoptosis in human NCI-H2228 cells assessed as total apoptotic cells at 50 nM incubated for 48 hrs by AnnexinV-FITC/propidium iodide staining based flow cytometry analysis. The format is functional.
The subject of series [9] is NCI-H2228. The series is described as follows: Induction of apoptosis in human NCI-H2228 cells assessed as total apoptotic cells at 100 nM incubated for 48 hrs by AnnexinV-FITC/propidium iodide staining based flow cytometry analysis. The format is functional.
The subject of series [10] is NCI-H2228. In words: Induction of cell cycle arrest in human NCI-H2228 cells assessed as increase in G1 phase cells at 50 nM incubated for 48 hrs by PI/RNase staining based flow cytometry analysis (reference value: 49.72 %). The format is functional.
Series [11] concerns NCI-H2228. The series is described as follows: Induction of cell cycle arrest in human NCI-H2228 cells assessed as decrease in G2 phase cells at 50 nM incubated for 48 hrs by PI/RNase staining based flow cytometry analysis (reference value: 15.38 %). The format is functional. Also noted: scale not given: the % may be the effect or the level left.
For series [12], the system named is Hep 3B2. In words: cells. The conditions noted are these: Homo sapiens, Hep3B, 72 h.
Description: Antiproliferative activity against human Hep3B cells assessed as inhibition of cell growth incubated for 72 hrs by MTT assay

Broadly, the pIC50 is −log10 of the IC50, conventionally taken in molar units. Broadly, the bioavailability is dose-corrected exposure relative to a reference, in per cent.

Sequence of ALK tyrosine kinase receptor (Q9UM73 19-1620 L1196M limits assumed): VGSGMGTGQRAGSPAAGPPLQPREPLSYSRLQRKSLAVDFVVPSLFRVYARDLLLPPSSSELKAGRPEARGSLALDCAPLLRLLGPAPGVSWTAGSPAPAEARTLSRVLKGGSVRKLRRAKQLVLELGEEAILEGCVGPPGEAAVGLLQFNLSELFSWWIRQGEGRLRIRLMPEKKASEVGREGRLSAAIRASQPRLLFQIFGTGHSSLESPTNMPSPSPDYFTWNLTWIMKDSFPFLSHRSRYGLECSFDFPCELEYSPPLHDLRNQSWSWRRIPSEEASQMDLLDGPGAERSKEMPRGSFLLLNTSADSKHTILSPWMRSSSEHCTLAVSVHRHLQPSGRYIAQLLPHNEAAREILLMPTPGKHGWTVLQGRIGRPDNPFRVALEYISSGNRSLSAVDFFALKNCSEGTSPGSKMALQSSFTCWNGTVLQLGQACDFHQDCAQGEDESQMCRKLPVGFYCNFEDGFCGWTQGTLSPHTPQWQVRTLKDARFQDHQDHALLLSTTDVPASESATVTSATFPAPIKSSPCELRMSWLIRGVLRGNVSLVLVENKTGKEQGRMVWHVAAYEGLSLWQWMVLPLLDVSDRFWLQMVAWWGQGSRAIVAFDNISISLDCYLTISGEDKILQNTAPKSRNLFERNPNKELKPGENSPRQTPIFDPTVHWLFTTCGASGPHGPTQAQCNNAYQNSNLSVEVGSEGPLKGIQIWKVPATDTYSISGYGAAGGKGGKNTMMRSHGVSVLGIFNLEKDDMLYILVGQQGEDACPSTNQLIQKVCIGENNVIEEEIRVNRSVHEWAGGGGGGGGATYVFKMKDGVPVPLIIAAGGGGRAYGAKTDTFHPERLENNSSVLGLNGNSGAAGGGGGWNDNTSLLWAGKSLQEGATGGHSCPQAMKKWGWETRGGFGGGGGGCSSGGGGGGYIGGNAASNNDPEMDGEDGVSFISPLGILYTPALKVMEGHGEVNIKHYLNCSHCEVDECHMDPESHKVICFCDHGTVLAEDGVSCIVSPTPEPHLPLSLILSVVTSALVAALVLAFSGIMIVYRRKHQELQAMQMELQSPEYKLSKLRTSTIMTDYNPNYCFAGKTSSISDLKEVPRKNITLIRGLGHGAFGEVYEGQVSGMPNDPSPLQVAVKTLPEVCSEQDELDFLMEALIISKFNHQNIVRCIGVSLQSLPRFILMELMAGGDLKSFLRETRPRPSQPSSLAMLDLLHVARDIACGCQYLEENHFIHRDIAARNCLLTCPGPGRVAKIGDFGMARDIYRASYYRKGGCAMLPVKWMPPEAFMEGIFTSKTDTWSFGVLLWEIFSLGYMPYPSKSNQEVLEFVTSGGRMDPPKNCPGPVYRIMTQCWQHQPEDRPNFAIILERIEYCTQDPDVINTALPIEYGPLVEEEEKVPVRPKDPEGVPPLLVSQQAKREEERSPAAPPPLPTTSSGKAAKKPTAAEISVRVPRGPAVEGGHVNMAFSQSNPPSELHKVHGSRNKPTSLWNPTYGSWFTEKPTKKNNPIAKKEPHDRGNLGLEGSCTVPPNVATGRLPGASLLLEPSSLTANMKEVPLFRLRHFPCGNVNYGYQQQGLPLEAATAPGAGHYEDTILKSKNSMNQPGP

Turning to `CNC(=O)c1ccccc1Nc1nc(Nc2ccc3c(C(=O)N(C)C)c(C)[nH]c3c2)ncc1Cl`, the pIC50 in series [1] was 8.43; in series [2] it was 7.82; in [3], 6.02; in series [12], 7.23. The same molecule showed a bioavailability in series [4] of 38.2%. The result in series [5] and in series [6] was Active. Besides, the Activity was found to be 23% in series [7]; 23.94% in series [8]; 31.7% in series [9]; 54.44% in series [10]; 13.28% in series [11].
